± gives the uncertainty stated by the source.
Experiment: xn = mol fraction of the nth substance listed

CCCCCC[n+]1ccn(C)c1.F[B-](F)(F)F + CCCCCO
101.33 kPa, x2 = 0.865
Details | viscosity [mPa·s]
315 K | 5.31 ± 0.53
315.35 K | 4.93 ± 0.2
315.39 K | 4.9 ± 0.19
315.5 K | 4.85 ± 0.17
315.63 K | 4.78 ± 0.15
315.79 K | 4.73 ± 0.15
315.84 K | 4.71 ± 0.15
315.86 K | 4.71 ± 0.15
318.02 K | 4.19 ± 0.13

F[B-](F)(F)F.[Li+] + CC[n+]1ccn(C)c1.O=S(=O)([N-]S(=O)(=O)C(F)(F)F)C(F)(F)F
electrical conductivity [S/m], 101 kPa
Details | x2 = 0.7088 | x2 = 0.7396 | x2 = 0.8073 | x2 = 0.8856 | x2 = 0.9623
288.15 K | – | 0.238 ± 0.024 | 0.31 ± 0.031 | 0.431 ± 0.043 | 0.542 ± 0.054
298.15 K | 0.295 ± 0.03 | 0.384 ± 0.039 | 0.489 ± 0.049 | 0.651 ± 0.065 | 0.807 ± 0.081
333.15 K | 1.01 ± 0.1 | 1.18 ± 0.12 | 1.4 ± 0.14 | 1.72 ± 0.17 | 2.03 ± 0.2

CCCC[N+](C)(C)C.O=S(=O)([N-]S(=O)(=O)C(F)(F)F)C(F)(F)F + CCC(O)CO
101 kPa
Details | viscosity [mPa·s]
323.15 K, x2 = 0.6289 | 15.53 ± 0.92
328.15 K, x2 = 0 | 30 ± 1.7
338.15 K, x2 = 0.2291 | 14.17 ± 0.84
338.15 K, x2 = 0.3543 | 11.92 ± 0.72
343.15 K, x2 = 0.2291 | 12.41 ± 0.74
348.15 K, x2 = 0.6289 | 7.02 ± 0.45
353.15 K, x2 = 0.5116 | 7.12 ± 0.45
353.15 K, x2 = 0.8622 | 4.78 ± 0.32

CCCCCCCCCCCCCCCC[n+]1ccccc1.O=C([O-])C(O)c1ccccc1 + C[C@H](N)C(=O)O + O
electrical conductivity [S/m], 101 kPa
Details | 293.15 K | 298.15 K | 303.15 K | 308.15 K | 313.15 K
x1 = 1.08e-06, x2 = 0 | 0.00061 ± 0.00098 | 0.00068 ± 0.0011 | 0.00076 ± 0.0012 | 0.00083 ± 0.0013 | 0.0009 ± 0.0015
x1 = 1.09e-06, x2 = 0.0009002 | 0.0006 ± 0.00087 | 0.00069 ± 0.001 | 0.00077 ± 0.0011 | 0.00087 ± 0.0012 | 0.00098 ± 0.0013
x1 = 1.09e-06, x2 = 0.001799 | 0.00068 ± 0.00073 | 0.00078 ± 0.00082 | 0.00088 ± 0.00091 | 0.001 ± 0.001 | 0.0011 ± 0.0011
x1 = 1.98e-06, x2 = 0 | 0.001 ± 0.001 | 0.0012 ± 0.0012 | 0.0013 ± 0.0013 | 0.0014 ± 0.0014 | 0.0016 ± 0.0015
x1 = 2.17e-06, x2 = 0.0009002 | 0.00107 ± 0.00085 | 0.00122 ± 0.00096 | 0.0014 ± 0.0011 | 0.0015 ± 0.0012 | 0.0017 ± 0.0013
x1 = 2.18e-06, x2 = 0.001799 | 0.00104 ± 0.00074 | 0.0012 ± 0.00085 | 0.00135 ± 0.00095 | 0.0015 ± 0.001 | 0.0017 ± 0.0011
x1 = 2.88e-06, x2 = 0 | 0.00147 ± 0.00099 | 0.0016 ± 0.0011 | 0.0018 ± 0.0012 | 0.002 ± 0.0014 | 0.0022 ± 0.0015
x1 = 3.26e-06, x2 = 0.0009002 | 0.0015 ± 0.00089 | 0.0017 ± 0.001 | 0.0019 ± 0.0011 | 0.0021 ± 0.0012 | 0.0024 ± 0.0014
x1 = 3.45e-06, x2 = 0.001799 | 0.00147 ± 0.00078 | 0.00167 ± 0.00088 | 0.00187 ± 0.00097 | 0.0021 ± 0.0011 | 0.0024 ± 0.0012
x1 = 3.96e-06, x2 = 0 | 0.0019 ± 0.001 | 0.0022 ± 0.0011 | 0.0024 ± 0.0013 | 0.0026 ± 0.0014 | 0.0029 ± 0.0015
x1 = 4.52e-06, x2 = 0.0009002 | 0.00197 ± 0.00089 | 0.0022 ± 0.001 | 0.0025 ± 0.0011 | 0.0028 ± 0.0012 | 0.0031 ± 0.0014
x1 = 4.54e-06, x2 = 0.001799 | 0.0019 ± 0.00081 | 0.00216 ± 0.0009 | 0.0024 ± 0.001 | 0.0027 ± 0.0011 | 0.003 ± 0.0012
x1 = 4.69e-06, x2 = 0 | 0.0023 ± 0.001 | 0.0026 ± 0.0011 | 0.0029 ± 0.0013 | 0.0031 ± 0.0014 | 0.0035 ± 0.0015
x1 = 5.61e-06, x2 = 0.0009002 | 0.00243 ± 0.00087 | 0.00275 ± 0.00098 | 0.0031 ± 0.0011 | 0.0034 ± 0.0012 | 0.0038 ± 0.0013
x1 = 5.81e-06, x2 = 0.001799 | 0.00234 ± 0.00081 | 0.00265 ± 0.00092 | 0.0029 ± 0.001 | 0.0033 ± 0.0011 | 0.0036 ± 0.0012
x1 = 5.95e-06, x2 = 0 | 0.00281 ± 0.00098 | 0.0032 ± 0.0011 | 0.0035 ± 0.0012 | 0.0038 ± 0.0013 | 0.0042 ± 0.0015
x1 = 6.87e-06, x2 = 0.0009002 | 0.00295 ± 0.00089 | 0.0033 ± 0.001 | 0.0037 ± 0.0011 | 0.0041 ± 0.0012 | 0.0045 ± 0.0014
x1 = 7.21e-06, x2 = 0 | 0.00341 ± 0.00095 | 0.0038 ± 0.0011 | 0.0042 ± 0.0012 | 0.0046 ± 0.0013 | 0.0051 ± 0.0015
x1 = 7.26e-06, x2 = 0.001799 | 0.00287 ± 0.00076 | 0.00323 ± 0.00085 | 0.0036 ± 0.00096 | 0.004 ± 0.0011 | 0.0044 ± 0.0012
x1 = 8.32e-06, x2 = 0.0009002 | 0.00346 ± 0.00082 | 0.00391 ± 0.00094 | 0.0043 ± 0.001 | 0.0048 ± 0.0012 | 0.0053 ± 0.0013
x1 = 8.71e-06, x2 = 0.001799 | 0.00335 ± 0.00071 | 0.00379 ± 0.00081 | 0.00423 ± 0.00091 | 0.0047 ± 0.001 | 0.0052 ± 0.0012
x1 = 8.83e-06, x2 = 0 | 0.00406 ± 0.00092 | 0.0046 ± 0.001 | 0.005 ± 0.0011 | 0.0055 ± 0.0013 | 0.006 ± 0.0014
x1 = 9.58e-06, x2 = 0.0009002 | 0.00394 ± 0.00075 | 0.00445 ± 0.00086 | 0.00497 ± 0.00097 | 0.0055 ± 0.0011 | 0.0061 ± 0.0012
x1 = 1.045e-05, x2 = 0 | 0.00469 ± 0.00089 | 0.0053 ± 0.001 | 0.0058 ± 0.0011 | 0.0065 ± 0.0012 | 0.0071 ± 0.0014
x1 = 1.071e-05, x2 = 0.001799 | 0.0039 ± 0.00071 | 0.00441 ± 0.00081 | 0.00494 ± 0.00091 | 0.0055 ± 0.001 | 0.0061 ± 0.0012
x1 = 1.121e-05, x2 = 0.0009002 | 0.00434 ± 0.00075 | 0.00493 ± 0.00085 | 0.00552 ± 0.00096 | 0.0062 ± 0.0011 | 0.0069 ± 0.0012
x1 = 1.207e-05, x2 = 0 | 0.00516 ± 0.00088 | 0.0058 ± 0.001 | 0.0064 ± 0.0011 | 0.0071 ± 0.0012 | 0.0079 ± 0.0014
x1 = 1.216e-05, x2 = 0.001799 | 0.00419 ± 0.00069 | 0.00476 ± 0.00078 | 0.00533 ± 0.00088 | 0.00596 ± 0.00099 | 0.0067 ± 0.0011
x1 = 1.284e-05, x2 = 0.0009002 | 0.00475 ± 0.00075 | 0.0054 ± 0.00085 | 0.006 ± 0.001 | 0.0067 ± 0.0011 | 0.0075 ± 0.0012
x1 = 1.351e-05, x2 = 0 | 0.00562 ± 0.00086 | 0.00631 ± 0.00097 | 0.007 ± 0.0011 | 0.0077 ± 0.0012 | 0.0085 ± 0.0013
x1 = 1.361e-05, x2 = 0.001799 | 0.00459 ± 0.00069 | 0.0052 ± 0.00079 | 0.00583 ± 0.00088 | 0.00654 ± 0.00098 | 0.0073 ± 0.0011
x1 = 1.411e-05, x2 = 0.0009002 | 0.00513 ± 0.00078 | 0.0058 ± 0.00088 | 0.00649 ± 0.00099 | 0.0072 ± 0.0011 | 0.0081 ± 0.0012
x1 = 1.478e-05, x2 = 0 | 0.00603 ± 0.0009 | 0.0068 ± 0.001 | 0.0075 ± 0.0011 | 0.0083 ± 0.0012 | 0.0092 ± 0.0013
x1 = 1.506e-05, x2 = 0.001799 | 0.00495 ± 0.00073 | 0.00559 ± 0.00081 | 0.00626 ± 0.00092 | 0.007 ± 0.001 | 0.0079 ± 0.0011
x1 = 1.519e-05, x2 = 0.0009002 | 0.00545 ± 0.0009 | 0.00616 ± 0.00095 | 0.0069 ± 0.0011 | 0.0077 ± 0.0012 | 0.0085 ± 0.0013
x1 = 1.622e-05, x2 = 0 | 0.00644 ± 0.00092 | 0.0072 ± 0.001 | 0.008 ± 0.0011 | 0.0089 ± 0.0013 | 0.0098 ± 0.0014
x1 = 1.646e-05, x2 = 0.0009002 | 0.00578 ± 0.00087 | 0.00652 ± 0.00096 | 0.0073 ± 0.0011 | 0.0081 ± 0.0012 | 0.009 ± 0.0013
x1 = 1.651e-05, x2 = 0.001799 | 0.00526 ± 0.00073 | 0.00598 ± 0.00083 | 0.00669 ± 0.00094 | 0.0075 ± 0.001 | 0.0083 ± 0.0011
x1 = 1.766e-05, x2 = 0 | 0.00687 ± 0.00093 | 0.0077 ± 0.001 | 0.0085 ± 0.0012 | 0.0094 ± 0.0013 | 0.0104 ± 0.0014
x1 = 1.778e-05, x2 = 0.001799 | 0.00557 ± 0.00075 | 0.00629 ± 0.00085 | 0.00707 ± 0.00096 | 0.0079 ± 0.0011 | 0.0088 ± 0.0011

CCCCCC[n+]1ccn(C)c1.F[B-](F)(F)F + CCCCCC[n+]1ccn(C)c1.[Cl-]
101 kPa, x2 = 0
Details | electrical conductivity [S/m] | viscosity [mPa·s]
303 K | 0.16 ± 0.013 | –
303.15 K | – | 189 ± 57
308 K | 0.205 ± 0.017 | –
308.15 K | – | 145 ± 44
313 K | 0.259 ± 0.021 | –
313.15 K | – | 114 ± 34
318 K | 0.322 ± 0.026 | –
318.15 K | – | 90 ± 27
323 K | 0.397 ± 0.032 | –
323.15 K | – | 73 ± 22
328 K | 0.481 ± 0.039 | –
328.15 K | – | 60 ± 18
333 K | 0.576 ± 0.046 | –
333.15 K | – | 49 ± 15

From the CheMixHub ionic liquid set
